This note sets out measurements from patent publication US10925283B2, “Microbiocidal phenylamidine derivatives” (SYNGENTA PARTICIPATIONS AG, priority 2016, dated 2021).

Molecules are shown by their SMILES.

Data set [1] deals with Blumeria graminis f. sp. tritici (Erysiphe graminis f. sp. tritici). Kind of data set: Blumeria graminis f. sp. tritici / wheat / leaf disc preventative (powdery mildew on wheat). The settings on record: foliar, wheat leaf segments cv. Kanzler, inoculated 1 day after application, assessed 6-8 days after application, read-out: control of Blumeria graminis f. sp. tritici (percent disease control compared to untreated). The class given is in vivo. In outline: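 Wheat cv. Kanzler leaf segments on agar were sprayed with formulated compound in water, then inoculated with powdery mildew 1 day after application. Incubation was at 20° C, 60% rh, 24 h dark then 12 h light/12 h dark. Percent disease control versus untreated was scored 6-8 days after application.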

A further data set has as its system Phakopsora pachyrhizi. Briefly: Phakopsora pachyrhizi / soybean / preventative (soybean rust). The settings on record: foliar, soybean leaf disks, inoculated one day after application, assessed 12-14 days after application, read-out: control of Phakopsora pachyrhizi (percent disease control compared to untreated). The class given is in vivo.
Data set [2] concerns Puccinia recondita f. sp. tritici. Briefly: Puccinia recondita f. sp. tritici / wheat / leaf disc curative (brown rust). In kind it is in vivo. The note with it: foliar, wheat leaf segments cv. Kanzler, compound applied 1 day after inoculation, assessed 6-8 days after application, read-out: control of Puccinia recondita f. sp. tritici (percent disease control compared to untreated). In a few lines:
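Curative test: leaf segments of wheat cv. Kanzler on agar were inoculated with spores and held dark at 19 °C, 75% rh; formulated compound in water was applied 1 day after inoculation. Segments were then kept at 19 °C, 75% rh under 12 h light/12 h dark, and percent disease control versus untreated was scored 6-8 days after application.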

Data set [3] has the same test system. Briefly: Puccinia recondita f. sp. tritici / wheat / leaf disc preventative (brown rust). In kind it is in vivo. The settings on record: foliar, wheat leaf segments cv. Kanzler, inoculated 1 day after application, assessed 7-9 days after application, read-out: control of Puccinia recondita f. sp. tritici (percent disease control compared to untreated). In a few lines:
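Leaf segments of wheat cv. Kanzler on agar were sprayed with diluted formulated compound and inoculated with spores 1 day later. Kept at 19° C, 75% rh, 12 h light/12 h dark. Percent disease control versus untreated assessed 7-9 days after application.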

As for `CCN(C)C=Nc1cc(OC)c(C(O)(C/C(=N/OC)c2ccccc2)C(F)(F)F)cc1C` (stereo not shown) [E.059, N-ethyl-N′-[4-[(3Z)-1-hydroxy-3-methoxyimino-3-phenyl-1-(trifluoromethyl)propyl]-5-methoxy-2-methyl-phenyl]-N-methyl-formamidine], the melting point was in the range of 105 to 107 °C. In data set [1], the pest or weed control at 200 ppm is not below 80%. Further, the pest or weed control at 200 ppm with Phakopsora pachyrhizi was not below 80%. Further, in data set [2], the pest or weed control at 200 ppm is not below 80%. Moreover, in data set [3], the pest or weed control at 200 ppm is not below 80%.
Regarding `CCN(C)/C=N/c1cc(OC)c(C(O)(C(F)(F)F)C(C)(C)C#N)cc1C` (stereo not shown) [E.060, N′-[4-[2-cyano-1-hydroxy-2-methyl-1-(trifluoromethyl)propyl]-5-methoxy-2-methyl-phenyl]-N-ethyl-N-methyl-formamidine], the melting point was in the range of 90 to 93 °C. Besides, the pest or weed control at 200 ppm in data set [1] is not below 80%. Besides, in the data set with Phakopsora pachyrhizi, the pest or weed control at 200 ppm was not below 80%. Further, the pest or weed control at 200 ppm in data set [2] is not below 80%. The pest or weed control at 200 ppm in data set [3] was not below 80%.

As a reminder, the melting point is the temperature of the solid-liquid transition.
